The numbers were not newly measured in PMC4718634, “Murine GPRC6A Mediates Cellular Responses to L-Amino Acids, but Not Osteocalcin Variants” (PLoS ONE, 2016), which cites them from elsewhere.

The subject of one series is 22RV1 / PC-3. To be noted: endogenous; ref [9] (supplement list); cited from earlier work. An excerpt:
(§1) Supplement pone.0146846.s004.docx, table 1 | column: Functional assay

The next series concerns MC3T3-E1. To be noted: endogenous; ref cell of this line empty; cited from earlier work.
Description: as §1

Another series relates to hC6A. To be noted: ref [9] (supplement list); cited from earlier work.
Description: as §1

The next series deals with GPRC6A. To be noted: ref [6] (supplement list); cited from earlier work.
Description: as §1

The test system of another series is 22RV1. As to conditions: endogenous, cited from earlier work.
Description: as §1

A further series relates to MA-10 Leyding cells. To be noted: endogenous; ref [15] (supplement list); cited from earlier work.
Description: as §1

The next series has as its system TC6. As to conditions: endogenous; ref [11] (supplement list); cited from earlier work.
Description: as §1

A further series deals with Unknown species GPRC6A. To be noted: ref [11] (supplement list); cited from earlier work.
Description: as §1

Consider “OCN: osteoblast-derived peptide, osteocalcin; variant not specified at the place (YLYQWLGAPVPYPDPLEPRREVCELNPDCDELADHIGFQEAYRRFYGPV; UniProt P02818 52-100, looked up)”, for which, in the series on 22RV1 / PC-3, the “PSA, Runx2 expression response” value is “pERK1/2 – response to Ca^2+, ZnCl2, OCN, Arginine, Testosterone-BSA Proliferation – response to Ca^2+, OCN PSA, Runx2 expression – response to OCN, Arg, R1881 Chemotaxis (22RV1) – response to Ca^2+, OCN”. Further, the Proliferation response result in the series with 22RV1 / PC-3 was “pERK1/2 – response to Ca^2+, ZnCl2, OCN, Arginine, Testosterone-BSA Proliferation – response to Ca^2+, OCN PSA, Runx2 expression – response to OCN, Arg, R1881 Chemotaxis (22RV1) – response to Ca^2+, OCN”; with 22RV1 (ref [10] (supplement list)) it was “pERK1/2 – response to Testosterone-BSA, Proliferation – response to Ca^2+, OCN, Testosterone-BSA”. Besides, the pERK1/2 response result with 22RV1 / PC-3 was “pERK1/2 – response to Ca^2+, ZnCl2, OCN, Arginine, Testosterone-BSA Proliferation – response to Ca^2+, OCN PSA, Runx2 expression – response to OCN, Arg, R1881 Chemotaxis (22RV1) – response to Ca^2+, OCN”; in the series on hC6A, “pERK1/2 – response to Ca^2+, ZnCl2, OCN, Arginine, Testosterone-BSA”; with Unknown species GPRC6A, “pERK1/2 - response to Ca^2+, L-Arg, OCN”. Moreover, the SRE-reporter gene response result with MC3T3-E1 was “SRE-reporter gene – response to OCN”; in the series with GPRC6A, “pERK1/2 – response to Ca^2+, Mg^2+, Gd^3+, Al^3+, NPS R568 SRE-reporter gene – response to CaCl2, SrCl2, MgCl2, GdCl3 and OCN”. The “Chemotaxis (22RV1) response” value in the series with 22RV1 (ref [9] (supplement list)) is “pERK1/2 – response to Ca^2+, ZnCl2, OCN, Arginine, Testosterone-BSA Proliferation – response to Ca^2+, OCN PSA, Runx2 expression – response to OCN, Arg, R1881 Chemotaxis (22RV1) – response to Ca^2+, OCN”. Also, in the series on MA-10 Leyding cells, the “Ca^2+i response” value is listed as “response”. The “Release of 25-OH-Vit D or Testosterone” value with MA-10 Leyding cells is “response”. For the same substance, in the series with MA-10 Leyding cells, the cAMP response result is listed as “no response”. For the same substance, the “pERK1/2, pPKD1 response” value in the series with TC6 is “pERK1/2, pPKD1 – response to OCN, L-Arg”.
